Experimental data reported in patent US6429204B1, “Method of inhibiting cancer growth” (University of Miami, priority 1997, dated 2002).

Columns and labels:
LNCaP = test: Cytotoxicity GI50 (MTT and thymidine incorporation), LNCaP; type: cell-based; conditions: Homo sapiens
Protocol: (§1) To confirm this observation, we compared the cytotoxicities of CMT-3 and doxycycline for a panel of common human prostate cancer cell lines. Cytotoxicity was measured using the MTT assay (see above) and a cellular thymidine incorporation assay as described by Lokeshwar et al. (1995a). The 50% growth inhibition (GI50) values obtained using both assays were identical. As shown in the data summarized in Table 3, below, CMT-3 was two- to eight-fold more cytotoxic than doxycycline.
(§2) Growth inhibition was calculated from linear regression of the dose-response curves generated for each experiment using log(dose) vs. cell proliferation (% of control). Correlation coefficient (r) was always ≧0.95 (negative). Results are presented as Mean±SEM of at least three GI50 values calculated from each experiment.

BPH-1 = test: Cytotoxicity GI50 (MTT and thymidine incorporation), BPH-1; type: cell-based; conditions: Homo sapiens
Protocol: as §1, §2

ALVA 101 = test: Cytotoxicity GI50 (MTT and thymidine incorporation), ALVA 101; type: cell-based; conditions: Homo sapiens
Protocol: as §1, §2

MAT LyLu = test: Cytotoxicity GI50 (MTT and thymidine incorporation), MAT LyLu; type: cell-based; conditions: Rattus norvegicus
Protocol: as §1, §2

[1] = system: C8161 human melanoma cells; test: In vitro invasion assay (MICS), laminin/collagen IV/gelatin matrix-coated filter; type: cell-based; conditions: 3, 20 and 50 μg/mL; for Percent Inhibition of invasive potential: 48 hr
Protocol: The in vitro invasive potentials of the control (DMSO only) and chemically-modified tetracycline treated cells were measured using a modified Boyden chamber as previously described (Membrane Invasion Culture System, MICS). An intervening barrier consisting of a polycarbonate filter containing 10 μm pores (Osmonics, Livermore, Calif.) coated with a defined matrix of human laminin/collagen IV/gelatin (Sigma, St. Louis, Mo.) was used for these studies. […] Doxycycline or individual CMTs were then added to different wells of the chamber at 3, 20 or 50 μg/mL 2 hr post-seeding and daily during the assay. After 48 hr, the cells were removed from the lower wells and the number of invasive cells was determined and compared to the original number of cells seeded into the upper wells. Where appropriate, data were corrected for proliferation during the period of the in vitro assay.

Dunning MAT LyLu tumor [2] = test: MAT LyLu tumor growth and lung metastasis, gavage from day of implant; type: in vivo, Copenhagen rats
Protocol: (§3) Tumor Generation and Treatment: Dunning MAT LyLu cells were harvested from culture flasks, and a 0.5 mL suspension containing from 2×10^5 to 2×10^6 cells/mL was inoculated into the dorsal flank of adult Copenhagen rats (Harlan Sprague Dawley, Indianapolis, Ind.). The rats weighed 250-300 g, and were 90-100 days old. Tumors were detected by palpating the skin around the site of injection starting 3 days following implant of the tumor cells (Lokeshwar et al. 1995a).
(§4) Drug Treatment In Vivo: Doxycycline and CMT-3 were dissolved in a 2% aqueous solution of a soluble form of carboxymethyl cellulose (Sigma Cat. No. C-5678), and a fresh solution was made up daily. Rats were gavaged daily with 1 mL of the drug solution (concentrations specified below), or the vehicle (2% carboxymethyl cellulose). Tumor growth was recorded three times a week, and rats were weighed weekly. The effect of various treatments on tumor growth was monitored over time using calipers, and the volume approximated to an ellipsoid (i.e., volume=length×width×height×0.5236) (Lokeshwar et al. 1993b). Tumor growth rate was determined by regression analysis of tumor volume versus time, for each tumor-bearing rat. Mean tumor growth rate (time to reach a fixed volume) for each treatment group was then used to evaluate the statistical significance of treatment efficacy using the INSTAT statistical program (Ravitz Software, San Diego, Calif.). Rats were euthanized once the tumor volume reached ≧10 cm^3. At that time animals were necropsied, tumors and lungs were removed and fixed in Bouin's fixative. Macroscopic tumor foci on the lungs were counted under a dissecting microscope.
CMT-3 and doxycycline were tested for antitumor activity in vivo. In this series of experiments, daily gavage of drugs was started on the same day on which tumor cells were implanted in the test animals. Tumor growth was initiated by sub cutis injection of 1×10^6 tumor cells.

PC-3 = test: Cytotoxicity GI50 (MTT and thymidine incorporation), PC-3; type: cell-based; conditions: Homo sapiens
Protocol: as §1, §2

C8161 cells = test: C8161 cell proliferation (doubling time); type: cell-based, human; conditions: 50 μg/mL; for Doubling Time: on plastic, DMSO 22 hr
Protocol: Cell Culture and Maintenance: C8161 cells, a human melanoma cell line, were maintained in Dulbecco's modified Eagle's medium (DMEM; […] These cells were routinely screened for Mycoplasma contamination using the GenProbe Rapid Detection System (Fisher Scientific; Chicago, Ill.). Chemically Modified Tetracyclines: Fresh stock solutions of the chemically modified tetracycline compounds (2 mg/mL) were prepared for each experiment by hydrating in 2% dimethyl sulfoxide (DMSO)/water pH 10, then adjusting to pH 7.4 using 1.0 M HCl. […] Sigma Chem. Co.; control) or 50 μg/mL of doxycycline or the other CMTs (three wells on each plate per compound). […] The doubling time for C8161 cells in the presence of each compound was then determined and compared to the DMSO treated cells (control).

Dunning MAT LyLu tumor [3] = test: MAT LyLu tumor incidence, growth and metastasis, predosing 7 days before implant; type: in vivo, Copenhagen rats; conditions: for tumor growth rate (time to reach tumor volume of 3 cm^3): 40 mg/kg predosing, animals with measurable tumors, control 15.9±2.0; for decrease in the number of lung metastases: summary b179, predosing context; for remission of palpable tumors (rats): two separate experiments
Protocol: as §3, §4
In another series of experiments, we examined whether predosing host animals with the drugs would affect tumor growth and metastasis. Daily gavage of control or drugs (doxycycline or CMT-3; 40 mg/kg) was begun 7 days prior to the injections of the MAT LyLu tumor cells (2×10^5 cells/animal) and continued for a total of 21 days.
Tumor growth rates were calculated from thrice-weekly measurement of tumor volume with linear regression analysis of log-transformed volume measurements (Dudak et al. 1996).

[4] = 40 mg/kg daily oral gavage from day of implant

NC(=O)C1=C(O)CC2CC3Cc4cccc(O)c4C(=O)C3=C(O)C2(O)C1=O (stereo not drawn) [CMT-3, 6-demethyl-6-deoxy-4-de(dimethylamino)tetracycline]
GI50 (LNCaP): 5 ± 2.1 µM | GI50 (BPH-1): 10.5 ± 3.7 µM | GI50 (ALVA 101): 6.82 ± 0.75 µM | GI50 (MAT LyLu): 5.2 ± 1.9 µM | Type of Inhibition [1]: dose dependent | Percent Inhibition of invasive potential [1]: 35-74% | primary tumor growth versus control group (regression analysis of tumor volumes) (Dunning MAT LyLu tumor [2]; 20 mg/kg or 40 mg/kg): no significant difference | reduction in MTF relative to the control group (Dunning MAT LyLu tumor [2]; 40 mg/kg (10 mg/rat)): 51% | metastatic tumor foci in lungs (Dunning MAT LyLu tumor [2]; [4]): 28.9±15.4 MTF/rat | time from injection of cells to 3 cm^3 tumor (Dunning MAT LyLu tumor [2]; control 13.57±2.12 days): 14.0 ± 1.9 days | number of lung metastases (Dunning MAT LyLu tumor [2]; oral gavage daily for 21 days following implant, controls 59.5±13.9): 28.9±15.4 sites/animal | GI50 (PC-3): 10.6 ± 2.1 µM | Doubling Time (C8161 cells): 28 h | increase of doubling time (C8161 cells; versus DMSO): ~27% | tumor growth rate (time to reach tumor volume of 3 cm^3) (Dunning MAT LyLu tumor [3]): 20.2 ± 3.5 days | tumor incidence lower than control or doxycycline groups by (Dunning MAT LyLu tumor [3]; 40 mg/kg, predosing): 55%±18 | tumor remission (inhibition of tumor incidence) (Dunning MAT LyLu tumor [3]; 40 mg/kg, predosing): tumor remission (inhibition of tumor incidence) occurred | gain in body weights (Dunning MAT LyLu tumor [3]; at termination (6-month post-treatment observation), control 3%): 12% | decrease in MTF versus controls (Dunning MAT LyLu tumor [3]; predosing): 37.5% | MTF in treated animals (Dunning MAT LyLu tumor [3]; predosing, animals with tumors ≧10 cm^3, controls 74.2±6.4): 46.3±6.7 | tumor incidence (Dunning MAT LyLu tumor [3]; preparation of CMT-3 of greater purity): 43% | decrease in the number of lung metastases (Dunning MAT LyLu tumor [3]): 58±8% | remission of palpable tumors (rats) (Dunning MAT LyLu tumor [3]): 30%

C[C@H]1c2cccc(O)c2C(=O)C2=C(O)[C@]3(O)C(=O)C(C(N)=O)=C(O)[C@@H](N(C)C)[C@@H]3[C@@H](O)[C@@H]21 [Doxycycline, 6α-deoxy-5-hydroxy-tetracycline, reference compound]
GI50 (LNCaP): 13.9 ± 2.97 µM | GI50 (BPH-1): 21.3 ± 5.4 µM | GI50 (ALVA 101): 36.6 ± 2.42 µM | GI50 (MAT LyLu): 20 ± 6.4 µM | Percent Inhibition of invasive potential [1]: 12-79% | metastatic tumor foci in lungs (Dunning MAT LyLu tumor [2]; 20 mg/kg daily oral gavage from day of implant): 39.7±17.2 MTF/rat | metastatic tumor foci in lungs (Dunning MAT LyLu tumor [2]; [4]): 43.6±18.8 MTF/rat | GI50 (PC-3): 36.4 ± 2.5 µM | Doubling Time (C8161 cells): 22 h | tumor incidence (Dunning MAT LyLu tumor [3]; 40 mg/kg daily, begun 7 days before implant, separate experiments): > 90% | tumor growth rate (time to reach tumor volume of 3 cm^3) (Dunning MAT LyLu tumor [3]): 16.7 ± 1.9 days | decrease in the number of lung metastases (Dunning MAT LyLu tumor [3]): 33±7.0% | remission of palpable tumors (rats) (Dunning MAT LyLu tumor [3]): 20%
